Assay [1] addresses T1, OX1 (Homo sapiens, UniProt O43613).
T1 construct: expressed in transfected cells; host or cells: CHO (CHO-OX1)
T1 sequence (O43613 1-425): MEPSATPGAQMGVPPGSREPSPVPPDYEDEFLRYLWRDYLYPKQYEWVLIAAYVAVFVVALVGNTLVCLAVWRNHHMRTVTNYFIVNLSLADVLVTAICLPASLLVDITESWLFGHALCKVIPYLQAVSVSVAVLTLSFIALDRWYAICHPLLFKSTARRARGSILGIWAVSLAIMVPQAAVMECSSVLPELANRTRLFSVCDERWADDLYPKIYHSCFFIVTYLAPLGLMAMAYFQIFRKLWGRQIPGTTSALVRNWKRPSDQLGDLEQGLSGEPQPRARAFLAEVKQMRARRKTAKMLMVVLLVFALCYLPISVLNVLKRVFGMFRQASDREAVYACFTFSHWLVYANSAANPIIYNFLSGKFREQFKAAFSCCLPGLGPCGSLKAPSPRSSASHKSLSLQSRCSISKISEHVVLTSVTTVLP
The experiment in a line: Orexin receptor cell-based functional assay, [Ca2+]i by FLIPR, CHO-OX1 cells. Particulars: FLIPR calcium, antagonism of EC90 of [OX], read-out: OXI, IC50. As to the method: (§1) Measurement of [Ca^2+]i using a FLIPR: CHO-OX1 or CHO-OX2 cells were seeded into black-walled clear-base 384-well plates (Corning, catalog #3712) at a density of 20,000 cells per well in F12-K medium supplemented with 10% FBS and then incubated in a 5% CO2, 37° C. incubator overnight to reach 90% confluency. The cells were incubated with equal volume of calcium6 loading buffer (Molecular Devices, Inc.) containing 2.5 mM probenecid at 37° C. for 2 h, followed by test compounds (dose-range 0.1 nM-10 μM) for another 30 min. The plates were then placed into a FLIPR (Molecular Devices, Inc.) to monitor fluorescence (λ excitation 488 nm, λ emission 540 nm) before and after the addition of EC90 of [OX].

Assay [2] has as its target T2, OX2 (Homo sapiens, UniProt O43614).
T2 construct: expressed in transfected cells; host or cells: CHO (CHO-OX2)
T2 sequence (O43614 1-444): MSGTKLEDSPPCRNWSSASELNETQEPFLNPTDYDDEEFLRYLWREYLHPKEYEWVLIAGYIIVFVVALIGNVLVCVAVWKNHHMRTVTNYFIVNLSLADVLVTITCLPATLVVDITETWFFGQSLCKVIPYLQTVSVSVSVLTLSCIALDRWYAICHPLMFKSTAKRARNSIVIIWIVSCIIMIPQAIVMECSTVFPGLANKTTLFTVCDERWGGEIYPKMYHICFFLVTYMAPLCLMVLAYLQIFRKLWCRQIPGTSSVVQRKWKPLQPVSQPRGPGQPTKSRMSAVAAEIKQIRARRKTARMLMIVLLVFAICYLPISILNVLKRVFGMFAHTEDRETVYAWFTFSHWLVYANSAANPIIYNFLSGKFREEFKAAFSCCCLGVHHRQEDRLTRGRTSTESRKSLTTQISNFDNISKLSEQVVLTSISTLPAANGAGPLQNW
Briefly: Orexin receptor cell-based functional assay, [Ca2+]i by FLIPR, CHO-OX2 cells. Particulars: FLIPR calcium, antagonism of EC90 of [OX]. As to the method:
as §1, with “[OX]. Results for exemplary compounds of Formulae (I), (Ia), (Ib), (II), (IIa), (III), (IIIa), (IV), (IVa), (V), or (Va) are shown in Table 3.” for “[OX].”

Usually IC50 stands for the concentration at which inhibition is half-maximal.

Consider `C[C@@H]1CC(F)(F)CN(C(=O)c2cc(F)ccc2-n2nccn2)[C@@H]1CNc1ncc(C(F)(F)F)cn1` [Compound 1, ((2S,3R)-5,5-difluoro-3-methyl-2-(((5-(trifluoromethyl)pyrimidin-2-yl)amino)methyl)piperidin-1-yl)(5-fluoro-2-(2H-1,2,3-triazol-2-yl)phenyl)methanone], for which the results for the half-inhibitory concentration (IC50) in assay [1] and in assay [2] were 192 nM and above 5000 nM, respectively.

For the compound `C[C@@H]1CC(F)(F)CN(C(=O)c2cc(Cl)ccc2-n2ncnn2)[C@@H]1CNc1ncc(C(F)(F)F)cn1` [Compound 4], the figures for the IC50 in assay [1] and in assay [2] were 81 nM and above 5000 nM, respectively.

Regarding `Cc1ccc(-n2nccn2)c(C(=O)N2CC(F)(F)C[C@@H](C)[C@H]2CNc2ncc(C(F)(F)F)cn2)c1` [Compound 5], the IC50 in assay [1] is 10 nM; in assay [2] it was above 5000 nM.

Regarding `Cc1ccc(-n2nccn2)c(C(=O)N2CC(F)(F)C[C@@H](C)[C@H]2CNc2ncc(Cl)cn2)c1` [Compound 6], the values for the IC50 in assay [1] and in assay [2] were 8 nM and above 5000 nM, respectively.

`Cc1ccc(-n2ncc(C)n2)c(C(=O)N2CC(F)(F)C[C@@H](C)[C@H]2CNc2ncc(C(F)(F)F)cn2)c1` [Compound 7]: the results for the IC50 in assay [1] and in assay [2] were 7 nM and above 5000 nM, respectively.

As for `Cc1ccc(-c2nnn(C)n2)c(C(=O)N2CC(F)(F)C[C@@H](C)[C@H]2CNc2ncc(C(F)(F)F)cn2)c1` [Compound 8], the concentration for half-maximal inhibition (IC50) was 8 nM in assay [1] and above 5000 nM in assay [2].

With `Cc1ccc(-c2nnn(C)n2)c(C(=O)N2CC(F)(F)C[C@@H](C)[C@H]2CNc2ncc(Cl)cn2)c1` [Compound 9], the IC50 was 6 nM in assay [1] and above 5000 nM in assay [2].

In the case of `C[C@@H]1CC(F)(F)CN(C(=O)c2cc(Cl)ccc2-n2nccn2)[C@@H]1CNc1ncc(C(F)(F)F)cn1` [Compound 10], the figures for the IC50 in assay [1] and in assay [2] were 7 nM and above 5000 nM, respectively.

For `C[C@@H]1CC(F)(F)CN(C(=O)c2cc(Cl)ccc2-n2nccn2)[C@@H]1CNc1ncc(Cl)cn1` [Compound 11], the IC50 in assay [1] is 8 nM; in assay [2], above 5000 nM.

Regarding `Cc1ccc(-n2nccn2)c(C(=O)N2CC(F)(F)C[C@@H](C)[C@H]2CNc2ncc(C(F)(F)F)cn2)n1` [Compound 12], the IC50 is 15 nM in assay [1] and above 5000 nM in assay [2].

Take `Cc1ccc(-n2nccn2)c(C(=O)N2CC(F)(F)C[C@@H](C)[C@H]2CNc2ncc(Cl)cn2)n1` [Compound 13]: the IC50 in assay [1] was 15 nM; in assay [2], above 5000 nM.

For the compound `C[C@@H]1CC(F)(F)CN(C(=O)c2cc(C#N)ccc2-n2nccn2)[C@@H]1CNc1ncc(C(F)(F)F)cn1` [Compound 14], the IC50 in assay [1] is 52 nM; in assay [2] it was above 5000 nM.

Regarding `C[C@@H]1CC(F)(F)CN(C(=O)c2cc(C#N)ccc2-n2nccn2)[C@@H]1CNc1ncc(Cl)cn1` [Compound 15], the 50% inhibitory concentration (IC50) in assay [1] was 46 nM; in assay [2], above 5000 nM.

With `Cc1ccc(-c2ccccn2)c(C(=O)N2CC(F)(F)C[C@@H](C)[C@H]2CNc2ncc(C(F)(F)F)cn2)n1` [Compound 16, ((2S,3R)-5,5-difluoro-3-methyl-2-(((5-(trifluoromethyl)pyrimidin-2-yl)amino)methyl)piperidin-1-yl)(6′-methyl-[2,3′-bipyridin]-2′-yl)methanone], the IC50 was 60 nM in assay [1] and above 5000 nM in assay [2].

Take `Cc1ccc(-c2ncccn2)c(C(=O)N2CC(F)(F)C[C@@H](C)[C@H]2CNc2ncc(C(F)(F)F)cn2)n1` [Compound 17, ((2S,3R)-5,5-difluoro-3-methyl-2-(((5-(trifluoromethyl)pyrimidin-2-yl)amino)methyl)piperidin-1-yl)(6-methyl-3-(pyrimidin-2-yl)pyridin-2-yl)methanone]: the IC50 in assay [1] was 8 nM; in assay [2] it was above 5000 nM.

Take `Cc1ccc(-c2ncccn2)c(C(=O)N2CC(F)(F)C[C@@H](C)[C@H]2CNc2ncc(Cl)cn2)n1` [Compound 18, ((2S,3R)-2-(((5-chloropyrimidin-2-yl)amino)methyl)-5,5-difluoro-3-methylpiperidin-1-yl)(6-methyl-3-(pyrimidin-2-yl)pyridin-2-yl)methanone]: the figures for the IC50 in assay [1] and in assay [2] were 18 nM and above 5000 nM, respectively.

With `Cc1noc(-c2ccc(Cl)cc2C(=O)N2CC(F)(F)C[C@@H](C)[C@H]2CNc2ncc(C(F)(F)F)cn2)n1` [Compound 19], the values for the IC50 in assay [1] and in assay [2] were 10 nM and above 5000 nM, respectively.

Regarding `CCc1cnc(NC[C@@H]2[C@H](C)CC(F)(F)CN2C(=O)c2nn(C)cc2-c2ccccc2)nc1` [Compound 20], the IC50 is 87 nM in assay [1] and above 5000 nM in assay [2].

For the compound `C[C@@H]1CC(F)(F)CN(C(=O)c2nn(C)cc2-c2ccccc2)[C@@H]1CNc1ncc(C(F)(F)F)cn1` [Compound 21], the IC50 in assay [1] was 2 nM; in assay [2] it was above 5000 nM.

For the compound `C[C@@H]1CC(F)(F)CN(C(=O)c2nn(C)cc2-c2ccccc2)[C@@H]1CNc1ncc(Cl)cn1` [Compound 22], the IC50 in assay [1] was 7 nM; in assay [2], above 5000 nM.

As for `C[C@@H]1CC(F)(F)CN(C(=O)c2nn(C)cc2-c2ccccc2F)[C@@H]1CNc1ncc(C(F)(F)F)cn1` [Compound 23], in assay [2], the IC50 is above 5000 nM.

As to `Cc1ccccc1-c1cn(C)nc1C(=O)N1CC(F)(F)C[C@@H](C)[C@H]1CNc1ncc(C(F)(F)F)cn1` [Compound 24], the values for the IC50 in assay [1] and in assay [2] were 385 nM and above 5000 nM, respectively.

`C[C@@H]1CC(F)(F)CN(C(=O)c2nn(C)cc2-c2ccc(F)cc2)[C@@H]1CNc1ncc(C(F)(F)F)cn1` [Compound 30]: in assay [2], the 50% inhibitory concentration (IC50) is above 5000 nM.

In the case of `Cc1cccc(-c2sc(C)nc2C(=O)N2CC(F)(F)C[C@@H](C)[C@H]2CNc2ncc(C(F)(F)F)cn2)c1` [Compound 63], the IC50 in assay [2] was above 5000 nM.

Regarding `Cc1nc(C(=O)N2CC(F)(F)C[C@@H](C)[C@H]2CNc2cnc(C(F)(F)F)cn2)c(-c2ccc(F)cc2)s1` [Compound 137], the IC50 in assay [1] turned out to be 5 nM.

Turning to `COc1ccc(-c2sc(C)nc2C(=O)N2CC(F)(F)C[C@@H](C)[C@H]2CNc2cnc(C(F)(F)F)cn2)cc1` [Compound 141], the IC50 in assay [1] was 6 nM.

`Cc1nc(C(=O)N2CC(F)(F)C[C@@H](C)[C@H]2CNc2cnc(C(F)(F)F)cn2)c(-c2cc(F)ccn2)s1` [Compound 150]: the IC50 in assay [2] is above 5000 nM.

Take `C[C@@H]1CC(F)(F)CN(C(=O)c2cc(Cl)ccc2-c2nnn(C)n2)[C@@H]1CNc1ccc(C(F)(F)F)cn1` [Compound 182]: in assay [1], the IC50 stood at 17 nM.

As for `Cc1ccc(-c2sc(C)nc2C(=O)N2CC(F)(F)C[C@@H](C)[C@H]2CNc2ccc(C(F)(F)F)cn2)nc1` [Compound 197], the half-maximal inhibitory concentration (IC50) in assay [2] was above 5000 nM.

In the case of `Cc1ccc(-c2cn(C)nc2C(=O)N2CC(F)(F)C[C@@H](C)[C@H]2COc2ccc(C(F)(F)F)cn2)nc1` [Compound 206, ((2S,3R)-5,5-difluoro-3-methyl-2-(((5-(trifluoromethyl)pyridin-2-yl)oxy)methyl)piperidin-1-yl)(1-methyl-4-(5-methylpyridin-2-yl)-1H-pyrazol-3-yl)methanone], in assay [1], the IC50 came to 22 nM.

For `C[C@@H]1CC(F)(F)CN(C(=O)c2nn(C)cc2-c2ncc(F)cn2)[C@@H]1COc1cnc(C(F)(F)F)cn1` [Compound 244], the IC50 in assay [2] was above 5000 nM.

`C[C@@H]1CC(F)(F)CN(C(=O)c2nn(C)cc2-c2ncc(F)cn2)[C@@H]1COc1ncc(C(F)(F)F)cc1F` [Compound 245]: the concentration for half-maximal inhibition (IC50) in assay [2] is above 5000 nM.

Source of the values: patent US12084437B2, “Halo-substituted piperidines as orexin receptor modulators” (AstraZeneca AB, priority 2016, dated 2024).
